Measured values from patent US9988430B2, “Stable GLP-1 based GLP-1/glucagon receptor co-agonists” (Novo Nordisk A/S, priority 2014, dated 2018).
*1 amine or outer side, *2 acyl side, *3 side chain or, on linkers, in order; H or OH if unused. Where a SMILES comes first, the peptide text is derived from it. Side-chain parts run from the residue outwards. [ ]: non-standard residue; d: D form. The star is where a group is joined. C18 diacid = O=C(O)CCCCCCCCCCCCCCCCC(=O)*; γGlu = O=C(O)[C@H](CCC(=O)[*:2])N[*:1]; Desaminohistidyl = O=C(CCc1c[nH]cn1)*; AEEA = NCCOCCOCC(=O)O; Aib = CC(C)(N)C(=O)O

Legend:
human GLP-1 receptor [1] = biological target: T1, human GLP-1 receptor (Homo sapiens, UniProt P43220); assay: Assay (II)(a): GLP-1 receptor binding, [125I]GLP-1 displacement, SPA on BHK membranes; conditions: displacement of [125I]GLP-1, membranes with human GLP-1 receptor; read-out: IC50 GLP-1R
T1 construct: expressed in transfected cells; host or cells: membranes of BHK cells, parent line BHKTS13, clone FCW467-12A
In short: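 Membranes from BHK cells expressing human GLP-1 receptor with WGA SPA beads, [125I]GLP-1(7-36)NH2 (480 pM added solution) and compound in HEPES pH 7.4 buffer with EGTA, MgCl2, Tween 20. Incubated 2 h at 30° C; SPA counts fitted by non-linear regression to IC50 in nM.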

[2] = Assay (III): ThT fibrillation assay for physical stability; format: physicochemical; conditions: pH 7.5, 10 mM HEPES buffer, 37° C., shaking 960 rpm
Excerpt: Assay (III): ThT Fibrillation Assay for the Assessment of Physical Stability of Peptide Compositions
The purpose of this assay is to assess the physical stability of the GLP-1 derivatives of the invention in aqueous solutions.
Low physical stability of a peptide may lead to amyloid fibril formation, which is observed as well-ordered, thread-like macromolecular structures in the sample, which eventually may lead to gel formation. This has traditionally been measured by visual inspection of the sample. However, that kind of measurement is very subjective and depending on the observer. Therefore, the application of a small molecule indicator probe is much more advantageous. Thioflavin T (ThT) is such a probe and has a distinct fluorescence signature when binding to fibrils [Naiki et al. (1989) Anal. Biochem. 177, 244-249; LeVine (1999) Methods. Enzymol. 309, 274-284]. […]
Here, as depicted in FIG. 1, F is the ThT fluorescence at the time t. The constant t0 is the time needed to reach 50% of maximum fluorescence. The two important parameters describing fibril formation are the lag-time calculated by t0−2τ and the apparent rate constant kapp 1/τ. […]
Incubation at given temperature, shaking and measurement of the ThT fluorescence emission were done in a Fluoroskan Ascent FL fluorescence platereader (Thermo Labsystems). […]

human glucagon receptor = biological target: T2, human glucagon receptor (Homo sapiens, UniProt P47871); assay: Assay (I)(b): glucagon receptor potency, CRE luciferase reporter gene assay in BHK cells; format: cell-based; conditions: BHK cells expressing human glucagon receptor, read-out: EC50 GlucagonR
T2 construct: expressed in transfected cells; host or cells: membranes of BHK cells, clone BHK hGCGR A3*25
Description: Assay (I): GLP-1 and Glucagon Receptor Potency The purpose of this example was to test the activity or potency, of the GLP-1 derivatives of the invention, in vitro. The in vitro potency is the measure of human GLP-1 receptor (GLP-1R) or glucagon receptor (glucagonR) activation, respectively, in a whole cell assay. In vitro potency was determined by measuring the cellular response of human GLP-1 or glucagon receptor activation, respectively, in a reporter gene assay. The assay was performed in a BHK cell line that stably expresses either the human GLP-1 receptor or the human glucagon receptor and comprises the DNA for the cAMP response element (CRE) coupled to a promoter and the gene for firefly luciferase (CRE luciferase). […] When assay incubation was completed, the luciferase substrate (luciferin) was added and the enzyme converted luciferin to oxyluciferin and produces bioluminescence. The luminescence was measured as the readout for the assay. […] The cells were counted and adjusted to 5×10EE3 cells/50 μl (1×10EE5 cells/ml) in Assay Medium. […] Each assay plate was read in a Perkin Elmer TopCount NXT instrument. […] EC50 values were calculated by the software and reported in pM.

human GLP-1 receptor [3] = biological target: T1, human GLP-1 receptor; assay: Assay (I)(a): GLP-1 receptor potency, CRE luciferase reporter gene assay in BHK cells; format: cell-based; conditions: BHK cells expressing human GLP-1 receptor, read-out: EC50 GLP-1R
In short: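 BHK cells (clone FCW467-12A/KZ10-1), 5×10EE3/well, exposed 3 h at 37° C to compound at 1×10EE-13 to 1×10EE-6 M final in medium with 2% ovalbumin and 0.2% Pluronic F-68. Luciferase luminescence read; EC50 (pM) from four-parameter fit.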

T1 sequence (P43220 24-463): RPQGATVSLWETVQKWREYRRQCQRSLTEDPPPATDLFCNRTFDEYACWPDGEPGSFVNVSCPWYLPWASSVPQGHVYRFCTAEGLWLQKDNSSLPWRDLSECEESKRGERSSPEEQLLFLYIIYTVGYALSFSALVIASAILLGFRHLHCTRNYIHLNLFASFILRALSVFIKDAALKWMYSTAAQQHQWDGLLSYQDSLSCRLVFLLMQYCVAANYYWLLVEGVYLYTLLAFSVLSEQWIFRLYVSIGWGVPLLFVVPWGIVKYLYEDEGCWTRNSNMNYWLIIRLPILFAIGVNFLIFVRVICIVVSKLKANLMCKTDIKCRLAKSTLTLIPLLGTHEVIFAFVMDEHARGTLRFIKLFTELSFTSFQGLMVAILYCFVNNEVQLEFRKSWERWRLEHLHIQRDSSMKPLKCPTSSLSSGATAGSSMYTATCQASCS
T2 sequence (P47871 26-477): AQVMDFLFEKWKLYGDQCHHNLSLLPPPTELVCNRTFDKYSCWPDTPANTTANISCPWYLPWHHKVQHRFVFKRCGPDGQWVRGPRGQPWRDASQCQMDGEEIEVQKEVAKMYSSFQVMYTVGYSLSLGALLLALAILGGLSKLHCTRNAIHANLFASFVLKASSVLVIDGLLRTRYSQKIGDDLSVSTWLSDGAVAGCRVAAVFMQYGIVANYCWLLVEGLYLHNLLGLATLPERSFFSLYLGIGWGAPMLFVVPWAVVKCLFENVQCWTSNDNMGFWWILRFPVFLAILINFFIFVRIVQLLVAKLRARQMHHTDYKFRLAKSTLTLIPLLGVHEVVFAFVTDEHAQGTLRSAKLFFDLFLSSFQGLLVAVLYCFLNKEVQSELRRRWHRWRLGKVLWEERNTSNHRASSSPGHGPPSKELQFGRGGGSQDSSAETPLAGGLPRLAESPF

Row | IC50 (human GLP-1 receptor [1]) [nM] | ThT assay pH 7.5: Lag time [2] [h] | EC50 (human glucagon receptor) [nM] | EC50 (human GLP-1 receptor [3]) [pM] | Structure (SMILES)
1 | 0.5 | 45.0 | – | – | CC[C@H](C)[C@H](NC(=O)[C@H](Cc1ccccc1)NC(=O)[C@H](CCC(=O)O)NC(=O)[C@H](CCCNC(=N)N)NC(=O)[C@H](C)NC(=O)[C@H](C)NC(=O)[C@H](CCC(N)=O)NC(=O)[C@H](CCCCNC(=O)CC[C@H](NC(=O)CC[C@H](NC(=O)COCCOCCNC(=O)COCCOCCNC(=O)CC[C@H](NC(=O)CCCCCCCCCCCCCCCCC(=O)O)C(=O)O)C(=O)O)C(=O)O)NC(=O)[C@H](CCC(=O)O)NC(=O)[C@H](CC(C)C)NC(=O)[C@H](Cc1ccc(O)cc1)NC(=O)[C@H](CCCCN)NC(=O)[C@H](CO)NC(=O)[C@@H](NC(=O)[C@H](CC(=O)O)NC(=O)[C@H](CO)NC(=O)[C@@H](NC(=O)[C@H](Cc1ccccc1)NC(=O)[C@@H](NC(=O)CNC(=O)[C@H](Cc1c[nH]cn1)NC(=O)C(C)(C)NC(=O)CCc1c[nH]cn1)[C@@H](C)O)[C@@H](C)O)C(C)C)C(=O)N[C@@H](C)C(=O)N[C@@H](Cc1c[nH]c2ccccc12)C(=O)N[C@@H](CC(C)C)C(=O)N[C@@H](CC(C)C)C(=O)N[C@@H](CCCCN)C(=O)NCC(=O)NCC(=O)NCC(=O)O [Example 13, N^ε22-[(4S)-4-carboxy-4-[[(4S)-4-carboxy-4-[[2-[2-[2-[[2-[2-[2-[[(4S)-4-carboxy-4-(17-carboxyheptadecanoylamino)butanoyl]amino]ethoxy]ethoxy]acetyl]amino]ethoxy]ethoxy]acetyl]amino]butanoyl]amino]butanoyl]-[Imp7,Aib8,His9,Lys18,Lys22,Arg26,Leu33,Gly36]-GLP-1-(7-37)-peptide] (Desaminohistidyl-[Aib]HGTFTSDVSKYLEK([γGlu-γGlu-AEEA-AEEA-γGlu-C18 diacid])QAAREFIAWLLKGGG-OH)
2 | – | – | 0.143 | 7 | CC[C@H](C)[C@H](NC(=O)[C@H](Cc1ccccc1)NC(=O)[C@H](CCCCNC(=O)COCCOCCNC(=O)COCCOCCNC(=O)CC[C@H](NC(=O)CC[C@H](NC(=O)CC[C@H](NC(=O)CCCCCCCCCCCCCCCCC(=O)O)C(=O)O)C(=O)O)C(=O)O)NC(=O)[C@H](CCCNC(=N)N)NC(=O)[C@H](C)NC(=O)[C@H](C)NC(=O)[C@H](CCC(N)=O)NC(=O)[C@H](CCC(=O)O)NC(=O)[C@H](CCC(=O)O)NC(=O)[C@H](CC(C)C)NC(=O)[C@H](Cc1ccc(O)cc1)NC(=O)[C@H](CCCNC(=N)N)NC(=O)[C@H](CO)NC(=O)[C@@H](NC(=O)[C@H](CC(=O)O)NC(=O)[C@H](CO)NC(=O)[C@@H](NC(=O)[C@H](Cc1ccccc1)NC(=O)[C@@H](NC(=O)CNC(=O)[C@H](Cc1c[nH]cn1)NC(=O)C(C)(C)NC(=O)CCc1c[nH]cn1)[C@@H](C)O)[C@@H](C)O)C(C)C)C(=O)N[C@@H](C)C(=O)N[C@@H](Cc1c[nH]c2ccccc12)C(=O)N[C@@H](CC(C)C)C(=O)N[C@@H](CC(C)C)C(=O)N[C@@H](CCCNC(=N)N)C(=O)O [Example 19, N^ε27-[2-[2-[2-[[2-[2-[2-[[(4S)-4-carboxy-4-[[(4S)-4-carboxy-4-[[(4S)-4-carboxy-4-(17-carboxyheptadecanoylamino)butanoyl]amino]butanoyl]amino]butanoyl]amino]ethoxy]ethoxy]acetyl]amino]ethoxy]ethoxy]acetyl]-[Imp7,Aib8,His9,Arg18,Glu22,Arg26,Lys27,Leu33,Arg34]-GLP-1-(7-34)-peptide] (Desaminohistidyl-[Aib]HGTFTSDVSRYLEEQAARK([AEEA-AEEA-γGlu-γGlu-γGlu-C18 diacid])FIAWLLR-OH)
